Test results from patent US20260365670A1, “EGFR INHIBITORS AND USES THEREOF” (DIZAL (JIANGSU) PHARMACEUTICAL CO., LTD., priority 2022, published 2026).
Where two headings read alike, the source gives them in different places.

What was measured:
A-431 = assay: Cell proliferation GI50, A-431 cells (Table 6); type: cell-based
PC-9 = assay: Cell proliferation assay, PC-9 cells (CellTiter-Glo, 72 hours); type: cell-based; details: PC9 cells, CellTiter-Glo, read-out: PC9 GI50
Summary of the method: (§1)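 In RPMI1640 medium (PC-9 with 10% FBS), each cell line was seeded at its own density: Ba/F3 5000 and PC-9 500 per well. A compound series was added the next day, with a time-zero viability plate read in parallel. Percent proliferation was subtracted for G0 and referenced to DMSO, and GI50 was derived by curve fitting.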

EGFR Exon19Del = biological target: T1, EGFR Exon19Del (Homo sapiens, UniProt P00533, DEL746-750); assay: Inhibition of EGFR Exon19Del biochemical enzymatic activity (HTRF); details: EGFR Del19, 1 mM ATP, 1 h, room temperature, read-out: IC50 @Del19
T1 construct: purchased Carna Bio
Summary of the method: (§2)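 In a buffer with 5 mM MgCl2, 1 mM MnCl2, 1 mM DTT and 0.01% CHAPS, enzyme turnover of 1 μM biotinylated TK substrate at 1 mM ATP is followed by HTRF after 1 h at room temperature. IC50 is obtained by a four-parameter fit.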

EGFR L858R = biological target: T2, EGFR L858R (Homo sapiens, UniProt P00533, L858R); assay: Inhibition of EGFR L858R biochemical enzymatic activity (HTRF); details: 1 mM ATP, 1 h, room temperature, read-out: IC50 (nM) @L858R
T2 construct: purchased Carna Bio
Summary of the method: as §2

EGFR[T790M/C797S/L858R] = biological target: T3, EGFR[T790M/C797S/L858R] (Homo sapiens, UniProt P00533, C797S/L858R/T790M); assay: Inhibition of EGFR[T790M/C797S/L858R] biochemical enzymatic activity (HTRF); details: EGFR T790M-C797S-L858R, 1 mM ATP, 1 h, room temperature, read-out: IC50 (nM) @T790M- C797S - L858R
T3 construct: purchased Carna Bio
Summary of the method: as §2

EGFR wild type = biological target: T4, EGFR wild type (Homo sapiens, UniProt P00533); assay: Inhibition of EGFR wild type biochemical enzymatic activity (HTRF); details: EGFR WT, 1 mM ATP, 1 h, room temperature, read-out: IC50 (nM) @WT
T4 construct: purchased Carna Bio
Summary of the method: as §2

EGFR L858R/T790M = biological target: T5, EGFR L858R/T790M (Homo sapiens, UniProt P00533, L858R/T790M); assay: Inhibition of EGFR L858R/T790M biochemical enzymatic activity (HTRF); details: EGFR L858R-T790M, 1 mM ATP, 1 h, room temperature, read-out: IC50 (nM) @L858R-T790M
T5 construct: purchased Carna Bio
Summary of the method: as §2

[1] = system: Ba/F3 cells expressing EGFR mutations; assay: Cell proliferation assay, Ba/F3 cells expressing EGFR mutations (CellTiter-Glo, 72 hours); type: cell-based; details: CellTiter-Glo
Summary of the method: as §1

EGFR (C797S L858R) = biological target: T6, EGFR (C797S L858R) (Homo sapiens, UniProt P00533, C797S/L858R); assay: Inhibition of EGFR (C797S L858R) biochemical enzymatic activity (HTRF); details: EGFR L858-C797S, 1 mM ATP, 1 h, room temperature, read-out: IC50 (nM) @L858-C797S
T6 construct: purchased signalchem
Summary of the method: as §2

EGFR Exon19Del/T790M = biological target: T7, EGFR Exon19Del/T790M (Homo sapiens, UniProt P00533, DEL746-750/T790M); assay: Inhibition of EGFR Exon19Del/T790M biochemical enzymatic activity (HTRF); details: EGFR Del19-T790M, 1 mM ATP, 1 h, room temperature, read-out: IC50 (nM) @Del19-T790M
T7 construct: purchased Carna Bio
Summary of the method: as §2

[2] = biological target: T8, EGFR[T790M/C797S/d746-750] (Homo sapiens, UniProt P00533, C797S/DEL746-750/T790M); assay: Inhibition of EGFR[T790M/C797S/d746-750] biochemical enzymatic activity (HTRF); details: EGFR T790M-C797S-Del19, 1 mM ATP, 1 h, room temperature, read-out: IC50 (nM) @T790M - C797S - Del19
T8 construct: purchased Carna Bio
Summary of the method: as §2

EGFR (d746-750 C797S) = biological target: T9, EGFR (d746-750 C797S) (Homo sapiens, UniProt P00533, C797S/DEL746-750); assay: Inhibition of EGFR (d746-750 C797S) biochemical enzymatic activity (HTRF); details: EGFR Del19-C797S, 1 mM ATP, 1 h, room temperature, read-out: IC50 (nM) @Del19-C797S
T9 construct: purchased signalchem
Summary of the method: as §2

[3] = Homo sapiens, A-431, A-431 cells
[4] = Mus musculus, BaF3, 72 h, BaF3 cells, EGFR DEL19-C797S, read-out: DEL19-C797S/BaF3 GI50
[5] = Mus musculus, BaF3, 72 h, BaF3 cells, EGFR DEL19-T790-C797S, read-out: DEL19-T790-C797S/BaF3 GI50
[6] = Mus musculus, BaF3, 72 h, BaF3 cells, EGFR L858R, read-out: L858R/BaF3 GI50
[7] = Mus musculus, BaF3, 72 h, BaF3 cells, EGFR L858R-C797S, read-out: L858R-C797S/BaF3 GI50
[8] = Mus musculus, BaF3, 72 h, BaF3 cells, EGFR L858R-T790-C797S, read-out: L858R-T790-C797S/BaF3 GI50
[9] = Mus musculus, BaF3, 72 h, BaF3 cells, EGFR L858R-T790M, read-out: L858R-T790M/BaF3 GI50
[10] = Mus musculus, BaF3, 72 h, EGFR DEL19-T790M, read-out: DEL19-T790M GI50

T1 sequence (P00533 with tags, fused parts or gaps DEL746-750 limits assumed): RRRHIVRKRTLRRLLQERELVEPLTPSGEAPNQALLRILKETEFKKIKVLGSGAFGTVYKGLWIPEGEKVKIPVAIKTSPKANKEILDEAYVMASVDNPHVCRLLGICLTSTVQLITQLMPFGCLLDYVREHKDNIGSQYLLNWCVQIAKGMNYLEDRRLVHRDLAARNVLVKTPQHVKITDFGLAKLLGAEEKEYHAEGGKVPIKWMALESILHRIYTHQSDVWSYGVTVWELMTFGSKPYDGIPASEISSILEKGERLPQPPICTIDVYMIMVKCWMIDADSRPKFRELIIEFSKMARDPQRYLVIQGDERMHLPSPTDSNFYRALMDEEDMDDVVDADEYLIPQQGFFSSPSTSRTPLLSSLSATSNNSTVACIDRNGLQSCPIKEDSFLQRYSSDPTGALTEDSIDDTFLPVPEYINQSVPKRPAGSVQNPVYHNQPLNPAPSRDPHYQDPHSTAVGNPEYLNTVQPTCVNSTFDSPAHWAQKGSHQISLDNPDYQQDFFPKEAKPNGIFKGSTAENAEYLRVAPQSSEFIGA
T8 sequence (P00533 with tags, fused parts or gaps DEL746-750/T790M/C797S limits assumed): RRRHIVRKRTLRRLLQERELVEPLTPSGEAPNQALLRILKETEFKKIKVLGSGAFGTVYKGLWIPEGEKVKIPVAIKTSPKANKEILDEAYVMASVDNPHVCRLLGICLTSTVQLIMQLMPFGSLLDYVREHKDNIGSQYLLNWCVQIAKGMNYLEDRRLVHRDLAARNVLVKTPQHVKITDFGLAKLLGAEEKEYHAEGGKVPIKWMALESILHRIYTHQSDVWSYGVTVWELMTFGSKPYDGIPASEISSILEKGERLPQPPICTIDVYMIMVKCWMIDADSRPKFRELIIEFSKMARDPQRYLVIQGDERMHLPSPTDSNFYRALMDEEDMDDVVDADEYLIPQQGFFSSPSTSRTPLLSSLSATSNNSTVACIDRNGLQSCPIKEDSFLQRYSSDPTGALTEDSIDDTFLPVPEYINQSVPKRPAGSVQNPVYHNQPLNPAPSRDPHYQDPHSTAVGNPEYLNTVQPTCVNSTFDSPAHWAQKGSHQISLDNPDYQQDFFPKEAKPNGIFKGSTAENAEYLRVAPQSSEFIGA
T9 sequence (P00533 with tags, fused parts or gaps DEL746-750/C797S limits assumed): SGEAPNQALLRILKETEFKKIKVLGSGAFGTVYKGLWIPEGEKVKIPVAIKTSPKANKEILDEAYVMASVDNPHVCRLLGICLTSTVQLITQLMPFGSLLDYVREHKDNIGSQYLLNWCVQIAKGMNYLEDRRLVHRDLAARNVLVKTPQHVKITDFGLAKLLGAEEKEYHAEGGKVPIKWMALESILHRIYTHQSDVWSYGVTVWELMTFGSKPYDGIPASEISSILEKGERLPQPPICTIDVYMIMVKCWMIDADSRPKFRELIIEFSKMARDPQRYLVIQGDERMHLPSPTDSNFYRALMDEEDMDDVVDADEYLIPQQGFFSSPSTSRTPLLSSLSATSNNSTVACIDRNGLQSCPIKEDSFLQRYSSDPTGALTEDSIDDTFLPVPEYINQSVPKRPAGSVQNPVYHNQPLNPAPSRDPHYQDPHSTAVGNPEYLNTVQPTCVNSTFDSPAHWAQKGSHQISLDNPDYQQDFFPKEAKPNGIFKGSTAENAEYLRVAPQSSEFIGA
T4 sequence (P00533 25-1210): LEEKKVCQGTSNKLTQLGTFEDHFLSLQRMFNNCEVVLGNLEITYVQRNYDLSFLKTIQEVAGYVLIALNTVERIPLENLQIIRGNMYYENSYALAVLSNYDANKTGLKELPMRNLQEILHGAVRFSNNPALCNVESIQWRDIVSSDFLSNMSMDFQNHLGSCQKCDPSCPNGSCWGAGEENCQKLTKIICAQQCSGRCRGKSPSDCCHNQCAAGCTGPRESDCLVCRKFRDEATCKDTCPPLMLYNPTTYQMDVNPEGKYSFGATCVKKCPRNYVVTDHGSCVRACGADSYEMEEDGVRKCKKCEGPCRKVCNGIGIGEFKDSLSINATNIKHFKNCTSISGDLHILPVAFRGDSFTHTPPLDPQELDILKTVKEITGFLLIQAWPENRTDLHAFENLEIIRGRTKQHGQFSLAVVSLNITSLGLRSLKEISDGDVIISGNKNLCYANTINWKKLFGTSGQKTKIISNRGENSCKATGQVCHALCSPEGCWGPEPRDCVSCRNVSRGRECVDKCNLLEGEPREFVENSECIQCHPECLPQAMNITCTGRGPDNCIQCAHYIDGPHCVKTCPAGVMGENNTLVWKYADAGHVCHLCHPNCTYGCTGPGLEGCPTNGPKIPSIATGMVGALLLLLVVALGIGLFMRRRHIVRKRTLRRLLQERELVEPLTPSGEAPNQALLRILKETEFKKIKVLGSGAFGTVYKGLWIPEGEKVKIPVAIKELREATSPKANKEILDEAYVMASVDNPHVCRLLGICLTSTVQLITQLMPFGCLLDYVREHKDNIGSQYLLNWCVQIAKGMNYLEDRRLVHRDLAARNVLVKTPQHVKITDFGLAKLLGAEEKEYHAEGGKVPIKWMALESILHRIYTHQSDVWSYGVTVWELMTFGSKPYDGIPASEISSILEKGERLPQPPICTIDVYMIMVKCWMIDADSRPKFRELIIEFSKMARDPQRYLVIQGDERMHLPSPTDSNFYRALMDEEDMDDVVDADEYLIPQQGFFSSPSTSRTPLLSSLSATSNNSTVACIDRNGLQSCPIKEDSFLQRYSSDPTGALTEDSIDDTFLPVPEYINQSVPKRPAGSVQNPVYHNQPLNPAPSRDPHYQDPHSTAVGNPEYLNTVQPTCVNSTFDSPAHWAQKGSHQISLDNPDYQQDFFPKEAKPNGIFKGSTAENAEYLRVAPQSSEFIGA
T2 sequence (P00533 25-1210 L858R): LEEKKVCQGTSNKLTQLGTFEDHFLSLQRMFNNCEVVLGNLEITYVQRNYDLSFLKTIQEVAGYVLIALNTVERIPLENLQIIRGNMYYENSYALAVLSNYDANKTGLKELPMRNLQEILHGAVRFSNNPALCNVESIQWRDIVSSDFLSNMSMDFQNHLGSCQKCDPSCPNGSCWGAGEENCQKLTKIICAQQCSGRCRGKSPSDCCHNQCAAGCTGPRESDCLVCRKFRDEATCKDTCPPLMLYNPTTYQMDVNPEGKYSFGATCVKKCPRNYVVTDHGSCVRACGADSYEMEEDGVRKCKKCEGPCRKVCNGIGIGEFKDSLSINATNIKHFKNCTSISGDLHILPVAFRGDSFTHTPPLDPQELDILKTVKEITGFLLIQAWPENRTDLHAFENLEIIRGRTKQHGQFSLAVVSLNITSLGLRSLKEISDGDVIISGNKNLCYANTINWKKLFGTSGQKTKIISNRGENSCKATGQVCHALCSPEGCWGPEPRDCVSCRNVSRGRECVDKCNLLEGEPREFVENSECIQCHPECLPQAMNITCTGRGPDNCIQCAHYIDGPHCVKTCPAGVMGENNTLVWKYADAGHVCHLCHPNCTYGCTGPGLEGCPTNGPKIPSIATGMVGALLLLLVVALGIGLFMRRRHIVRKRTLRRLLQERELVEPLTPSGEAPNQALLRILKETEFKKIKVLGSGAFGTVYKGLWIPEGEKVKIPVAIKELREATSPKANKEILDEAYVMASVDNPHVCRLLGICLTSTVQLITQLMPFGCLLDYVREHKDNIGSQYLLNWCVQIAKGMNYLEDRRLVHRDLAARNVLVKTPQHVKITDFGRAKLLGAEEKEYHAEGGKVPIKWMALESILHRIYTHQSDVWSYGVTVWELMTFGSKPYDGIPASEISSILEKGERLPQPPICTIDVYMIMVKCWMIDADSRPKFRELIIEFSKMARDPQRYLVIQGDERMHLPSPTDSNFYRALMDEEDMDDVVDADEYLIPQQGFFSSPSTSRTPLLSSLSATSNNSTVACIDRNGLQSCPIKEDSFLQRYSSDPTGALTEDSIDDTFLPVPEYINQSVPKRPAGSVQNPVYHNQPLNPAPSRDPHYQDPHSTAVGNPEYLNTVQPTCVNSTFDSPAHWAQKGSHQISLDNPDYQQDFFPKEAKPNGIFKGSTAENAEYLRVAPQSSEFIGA
T7 sequence (P00533 with tags, fused parts or gaps DEL746-750/T790M limits assumed): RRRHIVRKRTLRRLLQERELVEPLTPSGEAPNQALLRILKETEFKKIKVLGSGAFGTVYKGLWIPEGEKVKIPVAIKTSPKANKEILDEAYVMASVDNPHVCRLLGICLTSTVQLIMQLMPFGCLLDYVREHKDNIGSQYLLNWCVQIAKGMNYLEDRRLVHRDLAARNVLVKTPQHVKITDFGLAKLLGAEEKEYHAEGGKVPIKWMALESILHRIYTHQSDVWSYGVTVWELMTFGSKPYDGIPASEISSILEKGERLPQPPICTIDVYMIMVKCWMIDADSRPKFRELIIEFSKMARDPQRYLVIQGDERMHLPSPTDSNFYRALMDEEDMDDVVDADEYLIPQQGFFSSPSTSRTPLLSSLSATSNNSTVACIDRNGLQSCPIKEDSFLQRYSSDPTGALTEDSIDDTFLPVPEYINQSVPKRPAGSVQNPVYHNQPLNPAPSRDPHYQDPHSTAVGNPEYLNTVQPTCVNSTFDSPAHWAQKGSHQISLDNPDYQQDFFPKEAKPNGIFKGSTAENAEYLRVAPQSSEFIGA

Row | Structure (SMILES) | GI50 (A-431; [3]) | GI50 (PC-9; Homo sapiens, PC-9, 72 h) | IC50 (EGFR Exon19Del) | IC50 (EGFR L858R) | IC50 (EGFR[T790M/C797S/L858R]) | IC50 (EGFR wild type) | IC50 (EGFR L858R/T790M) | GI50 [1, 4] | GI50 [1, 5] | GI50 [1, 6] | GI50 [1, 7] | GI50 [1, 8] | GI50 [1, 9] | GI50 [1, 10] | IC50 (EGFR (C797S L858R)) | IC50 (EGFR Exon19Del/T790M) | IC50 [2] | IC50 (EGFR (d746-750 C797S)) | other results
1 | Cn1ncc2c1OCCN1CC3CCC(C3)(C1)n1c(nc3ccc(N4CCOCC4)cc31)NC(=O)c1cc-2c(=O)n(C)c1 (stereo not drawn) [Example A62] | – | – | 9.6 nM | 144 nM | 7.3 nM | 2040 nM | 7.6 nM | – | – | – | – | – | – | – | 63 nM | 6.2 nM | 6.3 nM | 3.8 nM | GI50 (A-431; A-431 cells): 2370 nM; GI50 (PC-9): 4.9 nM; GI50 ([1]; BaF3 cells, EGFR DEL19-C797S, read-out: DEL19-C797S/BaF3 GI50): 0.66 nM; GI50 ([1]; BaF3 cells, EGFR DEL19-T790-C797S, read-out: DEL19-T790-C797S/BaF3 GI50): 5.3 nM; GI50 ([1]; BaF3 cells, EGFR L858R, read-out: L858R/BaF3 GI50): 10 nM; GI50 ([1]; BaF3 cells, EGFR L858R-C797S, read-out: L858R-C797S/BaF3 GI50): 9.2 nM; GI50 ([1]; BaF3 cells, EGFR L858R-T790-C797S, read-out: L858R-T790-C797S/BaF3 GI50): 9.2 nM; GI50 ([1]; BaF3 cells, EGFR L858R-T790M, read-out: L858R-T790M/BaF3 GI50): 4.4 nM; GI50 ([1]; EGFR DEL19-T790M, read-out: DEL19-T790M GI50): 6.1 nM
2 | Cn1ncc2c1OCCN1CC3CCC(CC3)(C1)n1c(nc3ccc(N4CCOCC4)cc31)NC(=O)c1cc-2c(=O)n(C)c1 [Example A74, 15,21-Dimethyl-5-(morpholin-4-yl)-23-oxa-2,9,11,15,20,21,26-heptaazaheptacyclo[26.2.2.1^{1,26}.1^{13,17}.0^{2,10}.0^{3,8}.0^{18,22}]tetratriaconta-3,5,7,9,13,17(34),18(22),19-octaene-12,16-dione] | 2370 nM | 84 nM | 24 nM | 707 nM | 367 nM | > 5000 nM | 81 nM | 4.5 nM | 40 nM | 41 nM | 41 nM | 60 nM | 104 nM | 37 nM | 573 nM | 8.6 nM | 6.8 nM | 23 nM | –
3 | Cn1ncc2c1OCCN1CC3CCC(CC3)(C1)n1c(nc3ccccc31)NC(=O)c1cc-2c(=O)n(C)c1 [Example A100, 15,21-Dimethyl-23-oxa-2,9,11,15,20,21,26-heptaazaheptacyclo[26.2.2.1^{1,26}.1^{13,17}.0^{2,10}.0^{3,8}.0^{18,22}]tetratriaconta-3,5,7,9,13,17(34),18(22),19-octaene-12,16-dione] | 6000 nM | 144 nM | 97 nM | 2500 nM | 2950 nM | > 5000 nM | 3520 nM | 27 nM | 56 nM | 142 nM | 160 nM | 129 nM | 535 nM | 78 nM | 1760 nM | 25 nM | 26 nM | 120 nM | –
4 | C[C@@H]1CCCOc2c(cnn2C)-c2cc(cn(C)c2=O)C(=O)Nc2nc3ccc4c(c3n2C1)CCNC4 [Example A102, (11R)-5,11,30-Trimethyl-7-oxa-4,5,13,18,24,26,30-heptaazahexacyclo[26.3.1.0^{2,6}.0^{13,25}.0^{14,23}.0^{15,20}]dotriaconta-1(32),2(6),3,14,20,22,24,28-octaene-27,31-dione] | 2910 nM | 115 nM | 18 nM | 414 nM | 32 nM | > 5000 nM | 195 nM | 12 nM | 31 nM | 79 nM | 61 nM | 37 nM | 307 nM | 59 nM | 167 nM | 5.7 nM | 3.4 nM | 12 nM | –

Stronger by IC50 (EGFR Exon19Del), values ahead:

Row | GI50 (A-431; [3]) | GI50 (PC-9; Homo sapiens, PC-9, 72 h) | IC50 (EGFR Exon19Del) | IC50 (EGFR L858R) | IC50 (EGFR[T790M/C797S/L858R]) | IC50 (EGFR wild type) | IC50 (EGFR L858R/T790M) | GI50 [1, 4] | GI50 [1, 5] | GI50 [1, 6] | GI50 [1, 7] | GI50 [1, 8] | GI50 [1, 9] | GI50 [1, 10] | IC50 (EGFR (C797S L858R)) | IC50 (EGFR Exon19Del/T790M) | IC50 [2] | IC50 (EGFR (d746-750 C797S)) | Structure (SMILES) | other results
5 | 1790 nM | 29 nM | 6.1 nM | 224 nM | 17 nM | 2420 nM | 8 nM | 1.7 nM | 11 nM | 21 nM | 22 nM | 16 nM | 55 nM | 9.9 nM | 146 nM | 1.8 nM | 1.7 nM | 2.5 nM | Cn1ncc2c1OCCN1CC3CCC(C3)(C1)n1c(nc3ccccc31)NC(=O)c1cc-2c(=O)n(C)c1 (stereo not drawn) [Example A61B, 15,21-Dimethyl-23-oxa-2,9,11,15,20,21,26-heptaazaheptacyclo[24.4.1.1^{1,28}.1^{13,17}.0^{2,10}.0^{3,8}.0^{18,22}]tritriaconta-3,5,7,9,13,17(33),18(22),19-octaene-12,16-dione] | –
6 | 5420 nM | 44 nM | 3.3 nM | 44 nM | 8 nM | 672 nM | 6 nM | 2.5 nM | 27 nM | 21 nM | 21 nM | 35 nM | 69 nM | 20 nM | 35 nM | 3.8 nM | 3.4 nM | 2.8 nM | CN1CCN(c2ccc3nc4n(c3c2)C23CCC(CC2)CN(CCOc2c(cnn2C)-c2cc(cn(C)c2=O)C(=O)N4)C3)CC1 [Example A75, 15,21-Dimethyl-5-(4-methylpiperazin-1-yl)-23-oxa-2,9,11,15,20,21,26-heptaazaheptacyclo[26.2.2.1^{1,26}.1^{13,17}.0^{2,10}.0^{3,8}.0^{18,22}]tetratriaconta-3,5,7,9,13,17(34),18(22),19-octaene-12,16-dione] | –
7 | 1410 nM | 128 nM | 3.5 nM | 212 nM | 3.2 nM | > 5000 nM | 7.4 nM | 8.1 nM | 58 nM | 68 nM | 31 nM | 57 nM | 260 nM | 92 nM | 47 nM | 2.3 nM | 1.8 nM | 2.3 nM | C[C@@H]1CCCOc2c(cnn2C)-c2cc(cn(C)c2=O)C(=O)Nc2nc3ccc(N4CCN(C)CC4)c(Cl)c3n2C1 [Example A101, (11R)-15-Chloro-5,11,26-trimethyl-16-(4-methylpiperazin-1-yl)-7-oxa-4,5,13,20,22,26-hexaazapentacyclo[22.3.1.0^{2,6}.0^{13,21}.0^{14,19}]octacosa-1(28),2(6),3,14,16,18,20,24-octaene-23,27-dione] | –
